“And” between values parts separate entries of the source, which are not always exact repeats. Equal entries are not always repeated. Where two headings read alike, the source gives them in different places.

Common to all, as to format: cell-based, menschlich
Assay [1] deals with MDA-MB-231-Brustkrebszellen. Nature of the assay: Growth inhibition of MDA-MB-231 breast cancer cells in vitro (cytostatic effect). The note with it: MDA-MB-231 cells, read-out: IC50 Hemmwirkung auf das Wachstum. The source says:
(§1) Die cytostatische Wirkung der erfindungsgemäßen Verbindungen wurde an zwei verschiedenen menschlichen Mammacarcinomzellinien in vitro bestimmt (M. Goldbrunner et al., J.Med.Chem. 1997,40,3525). Es handelt sich dabei um die hormonunabhängige MDA-MB-231-Zellinie und die estrogensensitive MCF-7-Linie. Die MDA-MB-231-Zellen wurden auch für die durchflusszytometrischen Analysen zur Zellzyklusverteilung herangezogen (M.J.J. Jaroszeski und R. Heller, Flow Cytometry Protocols, Humana Press, 1998, Totowa New Jersey). Besonders überraschend war, dass diese synthetischen Verbindungen häufig bereits im Konzentrationsbereich von 10 bis 100 nanomolar das Wachstum von menschlichen Tumorzellen stark hemmen, obwohl sie nur ein relativ niedriges Molekulargewicht aufweisen (MG ~ 320 - 500) (Tabelle 2 und 3, Abb. 2). Potente Therapeutika, die ebenfalls in den Zellzyklus eingreifen, besitzen Molekulargewichte im Bereich von 825 (Vincristin als Base) und 850 (Paclitaxel).

Assay [2] concerns MCF-7-Mammacarcinomzellen. Kind of assay: Growth inhibition of MCF-7 mammary carcinoma cells in vitro (cytostatic effect). The note with it: MCF-7 cells, read-out: IC50 Hemmwirkung auf das Wachstum.
Source text: as §1

Assay [3] has as its system MDA-MB-231-Mammacarcinomzellen. Nature of the assay: Flow-cytometric analysis of cell cycle distribution.
Source text: as §1

By IC50 is commonly meant the midpoint of a concentration-inhibition curve. On to `COc1ccc(-c2[nH]c3cc(Cl)c(C)cc3c2C=C(C#N)C#N)cc1` [Verbindung 2, [6-Chlor-2-(4-methoxyphenyl)-5-methyl-indol-3-yl]-methylenpropandinitril], for which the half-maximal inhibitory concentration (IC50) in assay [1] worked out at 75 nM; in assay [2] it was 200 nM.
Consider `COc1ccc2c(C=C(C#N)C#N)c(-c3ccc(C)cc3)[nH]c2c1` [Verbindung 3, [6-Methoxy-2-(4-methylphenyl)-indol-3-yl]-methylenpropandinitril], for which the half-inhibitory concentration (IC50) amounted to 180 nM in assay [1] (Homo sapiens) and 250 nM in assay [2] (Homo sapiens, MCF7).
Turning to `COc1ccc(-c2[nH]c3ccc(F)cc3c2C=C(C#N)C#N)cc1` [Verbindung 4, [5-Fluor-2-(4-methoxyphenyl)-indol-3-yl]methylenpropandinitril], the IC50 in assay [1] was determined as 400 nM.
Take `CCCc1ccc2[nH]c(-c3ccc(OC)cc3)c(C=C(C#N)C#N)c2c1` [Verbindung 5, [2-(4-Methoxyphenyl)-5-n-propyl-indol-3-yl]-methylenpropandinitril]: in assay [1] (Homo sapiens), the IC50 worked out at 83 nM.
Take `COc1ccc(-c2[nH]c3cc(C(C)C)ccc3c2C=C(C#N)C#N)cc1` [Verbindung 6, [6-Isopropyl-2-(4-methoxyphenyl)-indol-3-yl]methylenpropandinitril]: the 50% inhibitory concentration (IC50) amounted to 210 nM in assay [1] (Homo sapiens) and 310 nM in assay [2] (Homo sapiens, MCF7).
With `CCCCc1ccc2[nH]c(-c3ccc(OC)cc3)c(C=C(C#N)C#N)c2c1` [Verbindung 7, [5-n-Butyl-2-(4-methoxyphenyl)-indol-3-yl]-methylenpropandinitril], the 50% inhibitory concentration (IC50) in assay [1] (Homo sapiens) was found to be 13 nM; in assay [2] (Homo sapiens, MCF7), 13 nM.
For `COc1ccc(-c2[nH]c3cc(OC)ccc3c2C=C(C#N)C#N)cc1` [Verbindung 10, [6-Methoxy-2-(4-methoxyphenyl)-indol-3-yl]methylenpropandinitril], the IC50 in assay [1] (Homo sapiens) is 260 nM.
In the case of `COc1ccc(-c2[nH]c3ccccc3c2C=C(C#N)C#N)cc1` [Verbindung 11, [2-(4-Methoxyphenyl)-indol-3-yl]-methylenpropandinitril], the half-inhibitory concentration (IC50) in assay [1] (Homo sapiens) turned out to be 720 nM.
Regarding `COc1cccc(-c2[nH]c3ccc(OC)cc3c2C=C(C#N)C#N)c1` [Verbindung 12, [5-Methoxy-2-(3-methoxyphenyl)-indol-3-yl]-methylenpropandinitril], the concentration for half-maximal inhibition (IC50) in assay [1] (Homo sapiens) came to 970 nM.
For `CCCCc1ccc2[nH]c(-c3ccc(C(F)(F)F)cc3)c(C=C(C#N)C#N)c2c1` [Verbindung 13, {5-Butyl-2-[4-(trifluormethyl)-phenyl]-indol-3-yl}methylenpropandinitril], in assay [1], the IC50 worked out at 56 nM. Also, the Debris % in assay [3] (Konz. 0.01 µM) was 2.9%; in assay [3] (Konz. 0.05 µM) it was 3.0%; in assay [3] (Konz. 0.1 µM), 13.3%; in assay [3] (Konz. 0.5 µM) it was 5.5%. The G1/G0 % in assay [3] (Konz. 0.01 µM) worked out at 52.7%; in assay [3] (Konz. 0.05 µM), 52.3%; in assay [3] (Konz. 0.1 µM), 52.6%; in assay [3] (Konz. 0.5 µM), 5.4%. In addition, the G2/M % in assay [3] (Konz. 0.01 µM) turned out to be 22.1%; in assay [3] (Konz. 0.05 µM), 22.1%; in assay [3] (Konz. 0.1 µM) it was 12.2%; in assay [3] (Konz. 0.5 µM), 76.3%. The S % in assay [3] (Konz. 0.01 µM) came to 22.9%; in assay [3] (Konz. 0.05 µM) it was 22.6%; in assay [3] (Konz. 0.1 µM), 22.3%; in assay [3] (Konz. 0.5 µM), 9.2%.
Consider `CCCCc1ccc2[nH]c(-c3ccc(C)cc3)c(C=C(C#N)C#N)c2c1` [Verbindung 14, [5-Butyl-2-(4-methylphenyl)-indol-3-yl]-methylenpropandinitril], for which, in assay [1] (Homo sapiens), the IC50 was determined as 65 nM. Moreover, the Debris % in assay [3] (Konz. 0.05 µM) was 2.5%; in assay [3] (Konz. 0.1 µM) it was 3.3%; in assay [3] (Konz. 0.5 µM), 24.5%; in assay [3] (Konz. 1.0 µM), 19.1%. The G1/G0 % in assay [3] (Konz. 0.05 µM) is recorded as 52.7%; in assay [3] (Konz. 0.1 µM), 50.6%; in assay [3] (Konz. 0.5 µM) it was 16.7%; in assay [3] (Konz. 1.0 µM), 6.1%. The G2/M % amounted to 22.4% in assay [3] (Konz. 0.05 µM), 21.9% in assay [3] (Konz. 0.1 µM), 41.5% in assay [3] (Konz. 0.5 µM) and 64.2% in assay [3] (Konz. 1.0 µM). Further, the S % in assay [3] (Konz. 0.05 µM) was 24.0%; in assay [3] (Konz. 0.1 µM), 24.6%; in assay [3] (Konz. 0.5 µM) it was 15.6%; in assay [3] (Konz. 1.0 µM), 10.3%.
For `CCCCc1ccc2[nH]c(-c3ccc(CC)cc3)c(C=C(C#N)C#N)c2c1` [Verbindung 15, [5-Butyl-2-(4-ethylphenyl)-indol-3-yl]-methylenpropandinitril], the concentration for half-maximal inhibition (IC50) in assay [1] (Homo sapiens) turned out to be 79 nM. In assay [3] (Konz. 0.01 µM), this compound yielded a Debris % of 5.0%, a G1/G0 % of 53.6%, a G2/M % of 21.8% and a S % of 20.0%. In assay [3] (Konz. 0.05 µM), this compound returned a Debris % of 6.6%, a G1/G0 % of 50.3%, a G2/M % of 19.8% and a S % of 24.2%. In assay [3] (Konz. 0.1 µM), this compound came in with a Debris % of 8.6%, a G1/G0 % of 51.8%, a G2/M % of 18.9% and a S % of 20.7%. For the same compound, in assay [3] (Konz. 0.5 µM), the Debris % came out at 23.2%, the G1/G0 % is listed as 5.7%, the G2/M % turned out to be 62.8% and the S % came to 6.3%.
On to `CCCCCc1ccc2[nH]c(-c3ccc(C(F)(F)F)cc3)c(C=C(C#N)C#N)c2c1` [Verbindung 16, {5-Pentyl-2-[4-(trifluormethyl)-phenyl]-indol-3-yl}-methylenepropandinitril], for which the concentration for half-maximal inhibition (IC50) in assay [1] was found to be 78 nM.
As for `CCCCCCc1ccc2[nH]c(-c3ccc(C(F)(F)F)cc3)c(C=C(C#N)C#N)c2c1` [Verbindung 17, {5-Hexyl-2-[4-(trifluormethyl)phenyl]-indol-3yl}-methylenpropandinitril], the IC50 in assay [1] came out at 150 nM.
Same read-out and setting: the result for `CCCCc1ccc2[nH]c(-c3ccc(OC)cc3)c(C=C(C#N)C(=O)O)c2c1` [Verbindung 18, 3-[5-n-Butyl-2-(4-methoxyphenyl-)indol-3-yl]-2-cyanoacrylsäure] reads 200 nM.
Turning to `COc1ccc(-c2[nH]c3cc(OC)ccc3c2C=NNc2ccccc2)cc1` [Verbindung 21, 6-Methoxy-2-(4-methoxyphenyl)-indol-3-carbaldehyd-phenylhydrazon], in assay [1] (Homo sapiens), the IC50 was found to be 1000 nM.
As for `CCCCc1ccc2[nH]c(-c3ccc(OC)cc3)c(C=NNC(=O)c3ccc(Cl)cc3)c2c1` [Verbindung 23, 5-n-Butyl-2-(4-methoxyphenyl)-indol-3-carbaldehyd-(4-chlorbenzoyl)hydrazon], in assay [1], the half-inhibitory concentration (IC50) came out at 90 nM.
For the compound `CCCCc1ccc2[nH]c(-c3ccc(CC)cc3)c(C=NNCc3cccnc3)c2c1` [Verbindung 26, 5-Butyl-2-(4-ethylphenyl)-indol-3-carbaldehyd-nicotinylhydrazon], the IC50 in assay [1] (Homo sapiens) was 53 nM. Further, in assay [3] (Konz. 0.01 µM), the Debris % is 3.2%, the G1/G0 % was determined as 51.0%, the G2/M % was found to be 26.3% and the S % was determined as 20.2%. Also, in assay [3] (Konz. 0.05 µM), the Debris % is reported as 2.8%, the G1/G0 % is recorded as 51.3%, the G2/M % is 22.9% and the S % is reported as 23.7%. In assay [3] (Konz. 0.1 µM), this compound returned a Debris % of 3.4%, a G1/G0 % of 49.2%, a G2/M % of 25.5% and a S % of 23.0%. Also, in assay [3] (Konz. 0.5 µM), the Debris % is 12.2%, the G1/G0 % was determined as 9.6%, the G2/M % was determined as 66.9% and the S % is 11.4%.
Consider `CCCCc1ccc2[nH]c(-c3ccc(C(F)(F)F)cc3)c(C=NNC(=O)c3ccccn3)c2c1` [Verbindung 27, 5-n-Butyl-2-[4-(trifluormethyl)-phenyl]-indol-3-carbaldehyd-picolinylhydrazon], for which, in assay [1], the concentration for half-maximal inhibition (IC50) turned out to be 260 nM.
In the case of `CCCCc1ccc2[nH]c(-c3ccc(C(F)(F)F)cc3)c(C=NNC(=O)c3ccncc3)c2c1` [Verbindung 28, 5-Butyl-2-[4-(trifluormethyl)-phenyl]-indol-3-carbaldehyd-isonicotinylhydrazon], the half-maximal inhibitory concentration (IC50) in assay [1] was 94 nM. In assay [3] (Konz. 0.05 µM), this compound displayed a Debris % of 3.5%, a G1/G0 % of 49.6%, a G2/M % of 24.2% and a S % of 25.6%. Moreover, in assay [3] (Konz. 0.1 µM), the Debris % was 3.8%, the G1/G0 % turned out to be 49.3%, the G2/M % amounted to 24.0% and the S % was determined as 23.7%. In assay [3] (Konz. 0.5 µM), this compound yielded a Debris % of 16.7%, a G1/G0 % of 16.9%, a G2/M % of 50.2% and a S % of 15.0%.
On to `CCCCc1ccc2[nH]c(-c3ccc(OC)cc3)c(C=NN3C(=O)c4ccccc4C3=O)c2c1` [Verbindung 29, N-{[5-n-Butyl-2(4-methoxyphenyl)-indol-3-yl]methylenamino}-phthalimid], for which the concentration for half-maximal inhibition (IC50) in assay [1] (Homo sapiens) is 30 nM.
Take `CCCCc1ccc2[nH]c(-c3ccc(C(F)(F)F)cc3)c(C=NNC(N)=O)c2c1` [Verbindung 30, 5-Butyl-2-[4-(trifluormethyl)-phenyl]-indol-3-carbaldehyd-semicarbazon]: the IC50 in assay [1] was 850 nM.
As for `CC[C@]1(O)C[C@H]2CN(CCc3c([nH]c4ccccc34)[C@@](C(=O)OC)(c3cc4c(cc3OC)N(C=O)[C@H]3[C@@](O)(C(=O)OC)[C@H](OC(C)=O)[C@]5(CC)C=CCN6CC[C@]43[C@@H]65)C2)C1` [Vincr., Vincristin, reference compound], in assay [3] (Konz. 0.1 µM), the G1/G0 % was 6.2% and 4.5% and 5.1% and 9.3% and 10.2% and 11.4% and 8.1%; the G2/M % was 67.0% and 76.0% and 60.7% and 53.8% and 61.0% and 48.4% and 54.1%.

The record behind these values is patent EP1746087A1, “Derivates of 3-indolylmethylene having cytostatic properties” (Universitaet Regensburg, priority 2005, dated 2007).
